According to patent publication US4584291A, “9-deoxy-9-tetrazolyl-derivatives of clavulanic acid, their preparation and their use” (Beecham Group p.l.c., priority 1980, dated 1986):
In brackets after ≈: the same amount, converted by molar mass.

Tests used:
St. Aureus Russell [1] = assay: standard MIC test, antibacterial activity of compound alone; type: cell-based, Staphylococcus aureus; settings: for MIC: Staphylococcus aureus
Text: (§1) In a standard MIC test the following antibacterial activities were obtained.

K. aerogenes E70 [2] = assay: as above; type: cell-based, Klebsiella aerogenes; settings: for MIC: Klebsiella aerogenes
Text: as §1

E.coli JT39 = assay: as above; type: cell-based, Escherichia coli; settings: for MIC: Escherichia coli
Text: as §1

K. aerogenes E70 [3] = assay: standard MIC test, synergy of tetrazolyl derivatives with amoxycillin; type: cell-based, Klebsiella aerogenes
St. Aureus Russell [4] = assay: as above; type: cell-based, Staphylococcus aureus
E. coli JT39 = assay: as above; type: cell-based, Escherichia coli
Text: In a standard MIC test the following data were obtained for the synergistic activity of tetrazolyl derivatives with amoxycillin.

[5] = amoxycillin plus compound at 1.0 μg/ml
[6] = amoxycillin plus compound at 5.0 μg/ml

Compound: O=C(O)C1C(=CCn2ncnn2)OC2CC(=O)N21 (centres unmarked) [Example 7, Lithium 9-tetrazol-2-yldoexyclavulanate]
- MIC (St. Aureus Russell [1]): 16 µg/mL (≈ 63.7 µM)
- MIC (K. aerogenes E70 [2]): 16 µg/mL (≈ 63.7 µM)
- MIC (E.coli JT39): 16 µg/mL (≈ 63.7 µM)

Compound: Nc1nnnn1CC=C1OC2CC(=O)N2C1C(=O)[O-].[Li+] (centres unmarked) [Example 10, Lithium 9-(5-aminotetrazolyl)deoxyclavulanate]
- MIC amoxycillin (K. aerogenes E70 [3]; [5]): 3.1 µg/mL
- MIC amoxycillin (K. aerogenes E70 [3]; [6]): 0.4 µg/mL
- MIC (antibacterial activity) (St. Aureus Russell [1]): 8 µg/mL
- MIC amoxycillin (St. Aureus Russell [4]; [5]): 0.3 µg/mL
- MIC amoxycillin (St. Aureus Russell [4]; [6]): 0.04 µg/mL
- MIC (antibacterial activity) (K. aerogenes E70 [2]): 31.2 µg/mL
- MIC amoxycillin (E. coli JT39; [5]): 4.0 µg/mL
- MIC (antibacterial activity) (E.coli JT39): 8 µg/mL

Compound: CCOC(=O)c1nnnn1CC=C1OC2CC(=O)N2C1C(=O)O (centres unmarked) [Example 14, Lithium 9-(5-ethoxycarbonyltetrazol-1-yl)deoxyclavulanate]
- MIC (St. Aureus Russell [1]): 8 µg/mL (≈ 24.7 µM)
- MIC (K. aerogenes E70 [2]): 31.2 µg/mL (≈ 96.5 µM)
- MIC (E.coli JT39): 8 µg/mL (≈ 24.7 µM)

Compound: O=C(O)c1nnnn1CC=C1OC2CC(=O)N2C1C(=O)O (centres unmarked) [Example 15, Disodium 9-(5-carboxylatotetrazol-1-yl)deoxyclavulanate]
- MIC (St. Aureus Russell [1]): 16 µg/mL
- MIC (K. aerogenes E70 [2]): 31.2 µg/mL
- MIC (E.coli JT39): 16 µg/mL

Compound: O=C(O)C1C(=CCn2cnnn2)OC2CC(=O)N21 (centres unmarked) [Example 18, Lithium 9-(tetrazol-1-yl)deoxyclavulanate]
- MIC (St. Aureus Russell [1]): 16 µg/mL (≈ 63.7 µM)
- MIC (K. aerogenes E70 [2]): 62.5 µg/mL (≈ 249 µM)
- MIC (E.coli JT39): 16 µg/mL (≈ 63.7 µM)

Compound: Cc1nnnn1CC=C1OC2CC(=O)N2C1C(=O)O (centres unmarked) [Example 25, Potassium 9-(5'-methyltetrazol-1'-yl)-9-deoxyclavulanate]
- MIC (St. Aureus Russell [1]): 16 µg/mL
- MIC (K. aerogenes E70 [2]): 62.5 µg/mL
- MIC (E.coli JT39): 8 µg/mL

Compound: O=C(O)C1C(=CCn2nnnc2-c2ccccc2)OC2CC(=O)N21 (centres unmarked) [Example 27, Potassium 9-(5'-phenyltetrazol-1'-yl)-9-deoxyclavulanate]
- MIC (St. Aureus Russell [1]): 4 µg/mL
- MIC (K. aerogenes E70 [2]): > 500 µg/mL
- MIC (E.coli JT39): 125 µg/mL

Compound: O=CNc1nnnn1CC=C1OC2CC(=O)N2C1C(=O)[O-].[Li+] (centres unmarked) [Example 35, Lithium 9-(5-formamidotetrazolyl)deoxyclavulanate]
- MIC amoxycillin (K. aerogenes E70 [3]; [5]): 6.2 µg/mL
- MIC amoxycillin (K. aerogenes E70 [3]; [6]): 1.6 µg/mL
- MIC (antibacterial activity) (St. Aureus Russell [1]): 16 µg/mL
- MIC amoxycillin (St. Aureus Russell [4]; [5]): 0.6 µg/mL
- MIC amoxycillin (St. Aureus Russell [4]; [6]): 0.16 µg/mL
- MIC (antibacterial activity) (K. aerogenes E70 [2]): 62.5 µg/mL
- MIC amoxycillin (E. coli JT39; [5]): 8.0 µg/mL
- MIC amoxycillin (E. coli JT39; [6]): 4.0 µg/mL
- MIC (antibacterial activity) (E.coli JT39): 31.2 µg/mL

Compound: CC1(C)S[C@@H]2[C@H](NC(=O)[C@H](N)c3ccc(O)cc3)C(=O)N2[C@H]1C(=O)O [amoxycillin, reference compound]
- MIC amoxycillin (K. aerogenes E70 [3]; amoxycillin alone): 1000 µg/mL
- MIC amoxycillin (St. Aureus Russell [4]; amoxycillin alone): 500 µg/mL
- MIC amoxycillin (E. coli JT39; amoxycillin alone): 2000 µg/mL

Compound: Sodium 9-(5-acetamidotetrazolyl)deoxyclavulanate [Example 12]
- MIC amoxycillin (K. aerogenes E70 [3]; [5]): 3.1 µg/mL
- MIC amoxycillin (K. aerogenes E70 [3]; [6]): 1.5 µg/mL
- MIC (antibacterial activity) (St. Aureus Russell [1]): 16 µg/mL
- MIC amoxycillin (St. Aureus Russell [4]; [5]): 0.3 µg/mL
- MIC amoxycillin (St. Aureus Russell [4]; [6]): 0.08 µg/mL
- MIC (antibacterial activity) (K. aerogenes E70 [2]): 31.2 µg/mL
- MIC amoxycillin (E. coli JT39; [5]): 4.0 µg/mL
- MIC amoxycillin (E. coli JT39; [6]): ≤ 0.5 µg/mL
- MIC (antibacterial activity) (E.coli JT39): 16 µg/mL
